Results on 3 molecules are retold here after patent publication US20110152207A1, “USE OF VITAMIN D GLYCOSIDES AND SULFATES FOR TREATMENT OF DISEASE” (priority 2009, published 2011).

For series [1] the following is noted: calcitriol = 1; cited from earlier work.
Series [2] relates to DU-145 cells. Nature of the series: DU-145 cell proliferation (CELLTITER BLUE). Format: cell-based, human. As to conditions: 4 days, control = 100. The procedure: LNCaP cells (ATCC # CRL-1740) are malignant prostate cancer cells originally obtained from a lymph node of a person whose prostatic cancer had metastasized to the lymph node. LNCaP cells were grown in tissue culture using RPMI-1640 media with 10% fetal bovine serum. Wells of two 48-well tissue culture plates were seeded with 5000 LNCaP cells/well. […] Half the media was replaced with fresh media with treatments on the third day of the treatment period. By day 6 of treatment, wells of control untreated cells were approximately 60% confluent. The live cell numbers in each well at the end of treatment were assessed using the “CELLTITER BLUE”-brand assay kit (Promega Corp., Madison, Wis.). The assay is based on the ability of living cells to convert a redox dye (resazurin) into a fluorescent end product (resorufin). […] A similar study was performed using a second human-derived prostatic cancer cell line known as DU-145 (ATCC# HTB-81). […] Exp. Med. Biol. 1995 375:53-63). The DU-145 cells were propagated in Eagle's Minimum Essential Medium with 10% fetal bovine serum. The cells were treated in culture for just 4 days, with half the media replaced with fresh media on day 3 of treatment. Cells were 40% confluent at the end of treatment.

For series [3], the system named is β-glucuronidase activity, duodenum lumen contents. Nature of the series: β-glucuronidase cleavage in duodenum lumen contents, free 1,25-D3 by RIA. Format: in vitro ADME, rats. The conditions noted are these: 150 pg added.
Description: (§3) The proximal 25 cm of duodenum/jejunum, the caudal 12 cm of ileum, and the cranial 12 cm of colon were removed. The contents from the lumen of each section were flushed with 3 ml water, collected, and pooled. Three-ml aliquots of intestinal contents were placed into tubes. To the tubes, either 2100 pg (3.53 pmoles) β-gluc-1,25-D3 was added and incubated at 37° C. for 0, 1, 3, or 6 hrs, or 150 pg (0.36 pmoles) of 1,25-D3 was added and incubated for 0 or 6 hrs. […] Acetonitrile (3 ml) was added to each tube after incubation to end all enzymatic activity, after which the 1,25-D3 was extracted. Tritiated 1,25-D3 was added to each tube to assess extraction efficiency. The preparations were cleaned by HPLC, and the samples were analyzed for 1,25-D3 content by RIA (Heartland Assays, Ames, Iowa) (Hollis et al., J. Steroid Biochem. Mol. Biol. 2007 103(3-5):473-6).
The subject of series [4] is LNCaP cells. Nature of the series: LNCaP cell proliferation (CELLTITER BLUE). Format: cell-based, human. The conditions noted are these: six days, control = 100. The method, then: LNCaP cells (ATCC # CRL-1740) are malignant prostate cancer cells originally obtained from a lymph node of a person whose prostatic cancer had metastasized to the lymph node. LNCaP cells were grown in tissue culture using RPMI-1640 media with 10% fetal bovine serum. Wells of two 48-well tissue culture plates were seeded with 5000 LNCaP cells/well. […] Half the media was replaced with fresh media with treatments on the third day of the treatment period. By day 6 of treatment, wells of control untreated cells were approximately 60% confluent. The live cell numbers in each well at the end of treatment were assessed using the “CELLTITER BLUE”-brand assay kit (Promega Corp., Madison, Wis.). The assay is based on the ability of living cells to convert a redox dye (resazurin) into a fluorescent end product (resorufin).

Series [5] relates to Cyp24. Nature of the series: Cyp24 mRNA expression in colon of mice after a single oral dose. In kind it is in vivo. As to conditions: 6 hrs. The method, then: (§1) Mice were decapitated 6 hrs later following light anesthesia under inhaled halothane. […] Tissue samples were flushed with ice-cold phosphate-buffered saline and immediately homogenized in 1 ml of TRIzol® reagent (Invitrogen Corp., Carlsbad, Calif.). Samples were then kept frozen at −86° C. prior to processing for RNA. For processing RNA, each TRIzol® homogenate was thawed at room temperature and 500 μl placed in a clean microfuge tube, mixed thoroughly with 100 μl chloroform for 15 sec and then centrifuged at 12,000×g for 15 min at 4° C. The upper aqueous phase was removed and mixed with 0.93 volumes of 75% EtOH. The mixture was then applied to an RNeasy spin column (Qiagen Inc., Germantown, Md.) and processed as described by the manufacturer with the exception that an additional wash with 2M NaCl/2 mM EDTA (pH 4.0) was included (Das et al. J Vet Diagn Invest. 2009; 21:771-778). RNA was eluted in 50 μl of water and the concentration obtained by UV spectrometry. One microgram of RNA was then used as a template for production of cDNA in a 20-μl reaction volume using random hexamers and Superscript III as described by the manufacturer (Invitrogen, Carlsbad, Calif.). Afterwards, samples were diluted to 100 μl final volume with TE buffer and stored at −20° C. prior to PCR analysis. Quantitative real-time RT-PCR was performed using a Stratagene Mx3005p cycler (Stratagene, La Jolla, Calif.) and PerfeCTa® SYBR® Green FastMix®, ROX reagent (Quanta Biosciences, Gaithersburg, Md.). Amplification of target cDNAs was accomplished with the following primers: Aliquots (8.3 ng) of cDNA were amplified under the following conditions: 95° C. for 30 sec, followed by 45 cycles of 95° C. for 1 sec and 57° C. for 30 sec. […] Oligonucleotides were obtained from Integrated DNA Technologies (Coralville, Iowa).

The nature of series [6]: Hypercalcemic effect: plasma calcium in rats under continuous subcutaneous infusion. In kind it is in vivo. The conditions noted are these: for Plasma Calcium Mean ± SD: 12th day, in mg/dL (unit assumed). The method, then: The pumps were filled aseptically with the appropriate dose of drug dissolved in propylene glycol. The pumps were surgically implanted under the skin on the dorsal neck and shoulder area aseptically. On the 12th day of infusion, rats were deeply anesthetized (isofluorane inhalation) and blood was collected by cardiac puncture for plasma calcium determination. The plasma calcium levels were determined by standard methods.

The subject of series [7] is Cyp24. Nature of the series: Cyp24 mRNA expression in duodenum of mice after a single oral dose. In kind it is in vivo. As to conditions: for Cyp24 expression in the duodenum, induction over control mice: 24 pmol per os. The method, then:
as §1

The test system of series [8] is DSS-induced inflammation of the lower colon. Nature of the series: Dextran sodium sulfate (DSS) mouse model of IBD. In kind it is in vivo. The conditions noted are these: DSS mice. An excerpt:
(§2) In this example, β-gluc-1,25-D3 compounds, alone or in combination with 25-β-glucuronide-25-hydroxyvitamin D3 compounds (hereinafter β-gluc-25-D3) were incorporated into the diet of mice and compared to equimolar 1,25-D3 with respect to therapeutic effects on IBD and induction of calcemia. A standard mouse model of IBD comprising administering dextran sodium sulfate (DSS) to induce inflammation of the lower colon was used to study these effects. Vitamin D treatments were first initiated for 4 days. After 4 days, mice were fed DSS-water for 7 days, allowed one day to recover, and sacrificed. Colon length, plasma calcium, fecal blood score, and body weight were assayed. Colon length is a standard marker of intestinal inflammation in the literature, with shortened colon length being an indicator of inflammation. A 1-cm section of the mid-colon was removed, fixed in formalin, and stained with hematoxylin & eosin for microscopic histopathologic evaluation by a veterinary pathologist blinded to the treatments. Each tissue section received a score from 0 to 4 reflecting absence of lesion to severe, extensive lesion for each of three criteria: (1) the degree of erosion/ulceration of colon mucosa; (2) the degree of infiltration of the tissues by inflammatory cells; and (3) the degree of submucosal edema. The sum of the score of each of these criteria constitutes the histopathological score for the tissue with a zero score representing normal tissue based on all criteria, and the worst possible outcome being a score of 12.

The test system of series [9] is intestinal inflammation. The conditions noted are these: Froicu et al., cited from earlier work.
Series [10] relates to β-glucuronidase activity, ileum lumen contents. Nature of the series: β-glucuronidase cleavage in ileum lumen contents, free 1,25-D3 by RIA. Format: in vitro ADME, rats. The conditions noted are these: 150 pg added.
Description: as §3
Series [11] is described as follows: Plasma 1,25-D3 concentration in mice after a single oral dose (RIA).
Series [12] in a line: Plasma calcium in the DSS mouse model of IBD. Format: in vivo. The conditions noted are these: DSS mice, 5000 ng/day in diet.
Description: as §2

Marks after values point to notes of the source that are not given here.

Take `C=C1/C(=C\C=C2/CCC[C@]3(C)[C@@H]([C@H](C)/C=C/[C@@H](O)C4CC4)CC[C@@H]23)C[C@@H](O)CC1O` (stereo partly drawn) [calcipotriol]: the calcemic index result in [1] was “about 0.01”.
As to `C=C1/C(=C\C=C2/CCC[C@]3(C)[C@@H]([C@H](C)CCCC(C)(C)O)CC[C@@H]23)C[C@@H](O)C[C@@H]1O` [1,25-D3, 1,25-dihydroxyvitamin D3, reference compound], the “Proliferation index (Mean ± SEM)” value in series [2] (DU-145, 20 nM) worked out at 94.7 ± 1.7; in [2] (DU-145, 100 nM), 89.3 ± 2.4; in series [4] (20 nM), 69.7 ± 8.4; in series [4] (100 nM) it was 63.8 ± 7.3. Besides, the “Measured Free 1,25-dihydroxy vitamin D” value in series [3] (0 hrs incubation, 37° C.) is on record as 96 pg; in series [3] (6 hrs incubation), 117 pg; in series [10] (0 hrs incubation), 129 pg; in [10] (6 hrs incubation), 128 pg. The “increase in Cyp24 in the colon over control mice” value in [5] (24 pmol per os) is recorded as “about 5 fold”. Further, the “increase in Cyp24 expression in the colon” value in [5] (48 pmol per os, relative to untreated mice) is around 4.8±4 fold. Also, the “Plasma Calcium Mean ± SD” value is recorded as 10.41 ± 0.27 in series [6] (10 ng/day continuous s.c. infusion) and 10.78 ± 0.26 in series [6] (15 ng/day continuous s.c. infusion). Further, the “lowest dose inducing a statistically significant increase in plasma calcium levels” value in series [6] (continuous s.c. infusion) is on record as 15 ng/day. Besides, the “Significantly greater than control? Duncan's Multiple Range Test” value in series [6] (plasma calcium, 15 ng/day) is on record as “Yes”. Further, the “Cyp24 expression in the duodenum, induction over control mice” value is 350 fold in [7] (1 hour), 1600 fold in [7] (3 hours) and “more than 2500 fold” in [7] (6 hours). The “induction of Cyp24 gene expression in the duodenum” value in [7] (48 pmol per os, 6 hrs) was above 1000 fold. Further, the results for the “Colon Length” value in series [8] (10 ng/day in diet) and in [8] (50 ng/day in diet) were 5.52 ± 0.20 cm and 5.74 ± 0.17 cm, respectively. Besides, the “Final Body Weight” value in [8] (10 ng/day in diet) worked out at 21.39 ± 0.82 g; in [8] (50 ng/day in diet), 20.82 ± 0.43 g. Besides, the “Fecal Blood Score” value is 0.33 ± 0.12^c in series [8] (10 ng/day, 0 = no blood to 3 = multiple blood spots) and 0.22 ± 0.12^c in series [8] (50 ng/day, scale 0-3). Moreover, the “Histopathology score (0-12)” value is recorded as 7.44 ± 0.50 in series [8] (10 ng/day, 0 = no lesions, 12 = severe) and 5.89 ± 0.54^c in [8] (50 ng/day). The “histopathological scores among the effective treatments” value in series [8] (50 ng/day) is reported as “numerically the best”. Also, the “improving inflammation” value in series [8] (50 ng/day) is listed as “less effective than the 70-ng/day β-gluc-1,25-D3 plus 5000 ng/day β-gluc-25-D3 combination treatment”. Moreover, the “hypercalcemia at the effective dose” value in [9] (50 ng) is listed as “results in hypercalcemia”. Besides, in [9] (mouse model of inflammatory disease), the “dose required to improve intestinal inflammation” value was 50 ng. Further, the “plasma 1,25-D3 concentration” value in [11] (6 pmol per os, 6 hr time point) is given as “not significantly increased”; in [11] (24 pmol per os, 24 hrs after treatment), “slightly below the concentration observed in control animals”. In series [11] (24 pmol per os), the “peak plasma 1,25-D3, fold over control mouse plasma 1,25-D3” value is recorded as around 14 fold. The “peak plasma concentration of 1,25-D3” value in [11] (24 pmol per os) is 1280 pg/mL. In addition, the “time of peak plasma 1,25-D3 concentration” value in series [11] (24 pmol per os) came to 1 h.
Consider “25-β-glucuronide-25-hydroxyvitamin D3 [β-gluc-25-D3]”, for which, in series [8] (5000 ng/day), the “Histopathology score (0-12)” value is 8.22 ± 0.72 and the “effect on IBD by itself” value is “essentially ineffective by itself”. Also, in series [8] (5000 ng/day in diet), the “Colon Length” value amounted to 5.50 ± 0.20 cm and the “Final Body Weight” value is 21.16 ± 0.53 g. Moreover, the “Fecal Blood Score” value in series [8] (5000 ng/day, scale 0-3) came out at 1.05 ± 0.34. In addition, the “Plasma Calcium” value in [12] is listed as 8.68 ± 0.27^d mg/dl.
